Consider 38 compounds from ChEMBL document CHEMBL3879888, “2,4,6-triamino-1,3,5-triazine derivative” (2008).

Each structure is given as a SMILES string. Calls of active or inactive are those of the source. No cut-off for these calls is given here.

Test [1] deals with T1, Voltage-gated inwardly rectifying potassium channel KCNH3 (Homo sapiens) (UniProt Q9ULD8).
T1 sequence (whole entry): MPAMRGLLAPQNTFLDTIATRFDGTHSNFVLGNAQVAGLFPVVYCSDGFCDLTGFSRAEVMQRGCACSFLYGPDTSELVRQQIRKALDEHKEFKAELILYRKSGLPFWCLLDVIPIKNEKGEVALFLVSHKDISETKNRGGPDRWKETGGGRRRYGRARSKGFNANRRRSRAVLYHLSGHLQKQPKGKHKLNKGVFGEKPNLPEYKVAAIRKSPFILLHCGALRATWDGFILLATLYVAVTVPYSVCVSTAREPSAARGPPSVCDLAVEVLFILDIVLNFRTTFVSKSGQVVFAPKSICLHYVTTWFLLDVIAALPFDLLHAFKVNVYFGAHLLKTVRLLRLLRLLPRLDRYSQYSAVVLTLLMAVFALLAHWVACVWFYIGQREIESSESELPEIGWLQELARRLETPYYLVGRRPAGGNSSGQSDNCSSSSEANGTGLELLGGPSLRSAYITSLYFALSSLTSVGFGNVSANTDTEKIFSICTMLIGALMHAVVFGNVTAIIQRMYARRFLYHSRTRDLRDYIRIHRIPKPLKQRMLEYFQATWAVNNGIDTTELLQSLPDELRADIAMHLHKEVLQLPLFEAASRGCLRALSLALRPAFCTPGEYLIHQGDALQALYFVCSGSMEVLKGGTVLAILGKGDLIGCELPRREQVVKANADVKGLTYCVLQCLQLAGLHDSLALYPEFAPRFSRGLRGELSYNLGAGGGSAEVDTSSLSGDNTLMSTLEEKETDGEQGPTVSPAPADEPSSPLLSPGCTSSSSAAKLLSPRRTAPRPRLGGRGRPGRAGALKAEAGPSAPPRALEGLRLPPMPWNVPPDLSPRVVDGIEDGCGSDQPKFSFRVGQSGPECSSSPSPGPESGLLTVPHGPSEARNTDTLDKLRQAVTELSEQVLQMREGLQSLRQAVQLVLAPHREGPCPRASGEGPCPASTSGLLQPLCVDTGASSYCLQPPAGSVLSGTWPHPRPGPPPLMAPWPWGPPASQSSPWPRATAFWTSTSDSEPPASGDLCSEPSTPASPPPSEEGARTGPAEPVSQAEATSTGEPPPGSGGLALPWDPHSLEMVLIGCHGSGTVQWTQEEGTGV
Briefly: Inhibition of BEC1 (unknown origin) expressed in dihydrofolate reductase-deficient CHO cells assessed as decrease in KCl-induced intracellular 86Rb ion release at 3 uM after 20 mins relative to control. Format: cell-based.

The test system of test [2] is Mus musculus. Kind of test: Inhibition of electroconvulsive shock-induced amnesia in ddy mouse at 3 mg/kg, ip by passive avoidance test. Format: functional, organism-based.

For `CC(C)Nc1nc(Nc2ccccc2)nc(Nc2ccc3c(c2)OCCO3)n1`, the inhibition in test [1] worked out at 40%.
As for `Brc1ccc(CNc2nc(Nc3ccccc3)nc(Nc3ccccc3)n2)cc1`, the inhibition in test [1] came out at 33%.
Still for that read-out and setting: under `Fc1cccc(CNc2nc(Nc3ccccc3)nc(Nc3ccccc3)n2)c1` stands 34%; under `CCOC(=O)CCCNc1nc(Nc2ccccc2)nc(Nc2ccccc2)n1`, 29%; under `O=C1NCCCC[C@@H]1Nc1nc(Nc2ccccc2)nc(Nc2ccccc2)n1`, 10%.
On to `CSc1ccccc1Nc1nc(Nc2ccccc2)nc(Nc2ccccc2)n1`, for which the inhibition in test [1] is 17%.
The same measure, in the same setting: under `O=[N+]([O-])c1cccc(Nc2nc(Nc3ccccc3)nc(Nc3ccccc3)n2)c1` stands 12%.
The same measure, in the same setting: under `CC(C)Nc1nc(Nc2ccc3c(c2)OCCO3)nc(Nc2ccc3c(c2)OCCO3)n1` stands 11%; under `C=CCNc1nc(Nc2ccccc2)nc(Nc2ccccc2)n1`, 44%; under `CCOC(=O)C(C)Nc1nc(Nc2ccccc2)nc(Nc2ccccc2)n1` (stereo not drawn), 36%.
Turning to `c1ccc(Nc2nc(Nc3ccccc3)nc(Nc3ccc4c(c3)OCCO4)n2)cc1`, the inhibition in test [1] came out at 15%.
Still for that read-out and setting: with `c1ccc(Nc2nc(NCC3CC3)nc(Nc3ccccc3)n2)cc1` the figure was 51%; with `CC(C)Nc1nc(Nc2ccc(Br)cc2)nc(Nc2ccc(Br)cc2)n1`, 11%; with `CC(C)Nc1nc(Nc2ccccc2)nc(Nc2ccc(F)cc2)n1`, 25%.
Same read-out and setting: under `CC(C)Nc1nc(Nc2ccccc2)nc(Nc2ccc3c(c2)CCC3)n1` stands 18%; under `NC(=O)CNc1nc(Nc2ccccc2)nc(Nc2ccccc2)n1`, 22%.
The same measure, in the same setting: with `OC[C@@H](CNc1nc(Nc2ccccc2)nc(Nc2ccccc2)n1)c1ccccc1` the figure was 50%; with `Cc1cnc(CNc2nc(Nc3ccccc3)nc(Nc3ccccc3)n2)cn1`, 29%; with `c1ccc(Nc2nc(Nc3ccccc3)nc(NC3CCCC3)n2)cc1`, 19%.
Take `CSC1COC[C@H]1Nc1nc(Nc2ccccc2)nc(Nc2ccccc2)n1` (stereo partly drawn): the inhibition in test [1] was found to be 49%.
Same read-out and setting: with `Cc1c(O)cccc1Nc1nc(Nc2ccccc2)nc(Nc2ccccc2)n1` the figure was 37%; with `Cc1cc(O)ccc1Nc1nc(Nc2ccccc2)nc(Nc2ccccc2)n1`, 31%.
Same read-out and setting: under `COc1ccc(CNc2nc(Nc3ccccc3)nc(Nc3ccccc3)n2)cc1` stands 31%; under `CSC1CCC[C@H]1Nc1nc(Nc2ccccc2)nc(Nc2ccccc2)n1` (stereo partly drawn), 34%.
In the case of `O=C1NCCCCC1Nc1nc(Nc2ccccc2)nc(Nc2ccccc2)n1` (stereo not drawn), the inhibition in test [1] came to 23%.
For the compound `CC(C)Nc1nc(Nc2ccccc2)nc(Nc2ccc(Br)cc2)n1`, the inhibition in test [1] is 27%.
The same measure, in the same setting: under `CCOC(=O)CNc1nc(Nc2ccccc2)nc(Nc2ccccc2)n1` stands 21%; under `CSc1ccc(Nc2nc(Nc3ccc(SC)cc3)nc(NC(C)C)n2)cc1`, 10%.
Take `Cc1ccc([N+](=O)[O-])cc1Nc1nc(Nc2ccccc2)nc(Nc2ccccc2)n1`: the inhibition in test [1] came out at 22%.
Still for that read-out and setting: with `c1ccc(Nc2nc(NCCc3cccs3)nc(Nc3ccccc3)n2)cc1` the figure was 10%; with `OCCc1ccccc1Nc1nc(Nc2ccccc2)nc(Nc2ccccc2)n1`, 40%.
Still for that read-out and setting: with `Clc1ccc(CNc2nc(Nc3ccccc3)nc(Nc3ccccc3)n2)cc1` the figure was 45%; with `O=[N+]([O-])c1ccc(CCNc2nc(Nc3ccccc3)nc(Nc3ccccc3)n2)cc1`, 33%.
Regarding `Cc1ccc(CNc2nc(Nc3ccccc3)nc(Nc3ccccc3)n2)cc1`, in test [1], the inhibition came to 35%.
With `c1ccc(Nc2nc(NCc3cccnc3)nc(Nc3ccccc3)n2)cc1`, the inhibition in test [1] came to 59%.
The same measure, in the same setting: with `Fc1ccccc1CNc1nc(Nc2ccccc2)nc(Nc2ccccc2)n1` the figure was 33%.
In the case of `Fc1ccc(Nc2nc(NCc3ccnc(F)c3)nc(Nc3ccccc3)n2)cc1`, the inhibition entry in test [2] was “Active”.
For the compound `OC1CCCCC1Nc1nc(Nc2ccccc2)nc(Nc2ccccc2)n1` (stereo not drawn), the inhibition in test [1] was found to be 23%.
